Laboratory results taken from patent publication US9850216B2 (H. LEE MOFFITT CANCER CENTER AND RESEARCH INSTITUTE, INC., priority 2013, dated 2017).
“And” between values parts separate entries of the source, which are not always exact repeats. Equal values may be shown once. Read-outs that look alike come from different tables or passages of the source.

Target: ACK1 (Homo sapiens, UniProt Q07912)
Experiment: ACK1 ELISA: phosphorylation of AKT-derived peptide
Format: biochemical
Details: 10 μM
[1] = Table 1, replicate values listed
[2] = Table 1, replicate values listed, read-out: % Inhibition at 10 μM (ELISA)
[3] = Table 1, replicate values listed, hydrochloride
[4] = Table 2, library 9, read-out: % Inhibition @ 10 μM (ELISA)
[5] = read-out: ACK1 inhibition at 10 μM (ELISA)

Sequence of ACK1 (Q07912 whole entry): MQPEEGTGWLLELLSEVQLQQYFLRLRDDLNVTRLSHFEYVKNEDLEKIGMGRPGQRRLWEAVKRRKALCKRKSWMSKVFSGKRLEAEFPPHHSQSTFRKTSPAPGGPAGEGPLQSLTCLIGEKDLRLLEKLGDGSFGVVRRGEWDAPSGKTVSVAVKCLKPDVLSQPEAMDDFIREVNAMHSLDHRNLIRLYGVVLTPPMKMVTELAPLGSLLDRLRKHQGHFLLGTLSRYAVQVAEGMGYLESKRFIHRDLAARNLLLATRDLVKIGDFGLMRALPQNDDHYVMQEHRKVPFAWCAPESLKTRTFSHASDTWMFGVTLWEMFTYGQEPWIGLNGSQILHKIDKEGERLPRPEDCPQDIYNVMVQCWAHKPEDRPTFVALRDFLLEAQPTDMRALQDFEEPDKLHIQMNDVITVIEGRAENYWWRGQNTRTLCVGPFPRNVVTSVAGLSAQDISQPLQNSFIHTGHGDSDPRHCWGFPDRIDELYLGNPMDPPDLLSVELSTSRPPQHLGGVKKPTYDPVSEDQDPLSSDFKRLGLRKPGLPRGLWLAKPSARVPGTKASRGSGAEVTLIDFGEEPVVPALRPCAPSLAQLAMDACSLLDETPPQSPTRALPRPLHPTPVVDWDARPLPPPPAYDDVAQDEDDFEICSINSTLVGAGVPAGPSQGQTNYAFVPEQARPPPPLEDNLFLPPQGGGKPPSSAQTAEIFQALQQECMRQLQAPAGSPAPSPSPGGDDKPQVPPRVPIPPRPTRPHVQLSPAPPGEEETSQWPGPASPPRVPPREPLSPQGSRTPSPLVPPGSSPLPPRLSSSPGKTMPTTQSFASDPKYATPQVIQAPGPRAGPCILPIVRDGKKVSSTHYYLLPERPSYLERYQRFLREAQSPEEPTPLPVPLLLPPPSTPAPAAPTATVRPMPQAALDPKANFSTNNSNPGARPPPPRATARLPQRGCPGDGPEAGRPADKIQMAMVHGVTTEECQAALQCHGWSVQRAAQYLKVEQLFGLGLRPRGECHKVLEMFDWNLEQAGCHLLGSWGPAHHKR

| SMILES | % Inhibition at 10 μM (ELISA) [1] | inhibition at 10 µM [2] [%] | % Inhibition at 10 μM (ELISA) [3] | inhibition at 10 µM [4] [%] | inhibition at 10 µM [5] [%] |
| --- | --- | --- | --- | --- | --- |
| COc1cc(N2CCOCC2)ccc1Nc1ncc(Cl)c(NCC2CCCO2)n1 (centres unmarked) [MH1-030-4, 5-chloro-N2-(2-methoxy-4-morpholinophenyl)-N4-((tetrahydrofuran-2-yl)methyl)pyrimidine-2,4-diamine] | 82% | 88 |  |  |  |
| CCOC(=O)C1CCN(c2ccc(Nc3ncc(C(=O)Nc4c(F)cccc4Cl)c(NCC4CCCO4)n3)cc2)CC1.Cl (centres unmarked) [DZ1-094, Ethyl 1-(4-(5-(2-chloro-6-fluorophenylcarbamoyl)-4-((tetrahydrofuran-2-yl)methylamino)pyrimidin-2-ylamino)phenyl)piperidine-4-carboxylate] | 73% | 61 |  |  |  |
| Brc1cnc(Nc2ccc(C3CCNCC3)cc2)nc1NCC1CCCO1.Cl (centres unmarked) [DZ1-088, 5-bromo-N2-(4-(piperidin-4-yl)phenyl)-N4-((tetrahydrofuran-2-yl)methyl)pyrimidine-2,4-diamine] | 85% | 84 |  |  |  |
| Cl.O=C(Nc1c(F)cccc1Cl)c1cnc(Nc2ccc(N3CCOCC3)cc2)nc1NCC1CCCO1 (centres unmarked) [DZ1-092, N-(2-chloro-6-fluorophenyl)-2-(4-morpholinophenylamino)-4-((tetrahydrofuran-2-yl)methylamino)pyrimidine-5-carboxamide] | 88% | 77 |  |  |  |
| COc1ccc(Nc2ncc(Br)c(NCC3CCCO3)n2)cc1.Cl (centres unmarked) [SK1-022, 5-Bromo-N2-(4-methoxyphenyl)-N4-((tetrahydrofuran-2-yl)methyl)pyrimidine-2,4-diamine] | 67% | 68 |  |  |  |
| Cc1cnc(Nc2ccc(O)c(F)c2)nc1NCC1CCCO1.Cl (centres unmarked) [YL7-170-1, 2-Fluoro-4-(5-methyl-4-((tetrahydrofuran-2-yl)methylamino)pyrimidin-2-ylamino)phenol hydrochloride] |  |  | 51% and 29% and 47% |  |  |
| CN1CCN(c2ccc(Nc3ncc(Br)c(NCC4CCCO4)n3)cc2)CC1 (centres unmarked) [Compound 18] |  |  |  | 67 ± 0.2 | 67 |
| Clc1cnc(Nc2ccc(N3CCNCC3)cc2)nc1NCC1CCCO1 (centres unmarked) [Compound 14] |  |  |  | 66 ± 1.5 | 66 |
| CCOC(=O)C1CCN(c2ccc(Nc3ncc(Br)c(NCC4CCCO4)n3)cc2)CC1.Cl (centres unmarked) [DZ1-093, Ethyl 1-(4-(5-bromo-4-((tetrahydrofuran-2-yl)methylamino)pyrimidin-2-ylamino)phenyl)piperidine-4-carboxylate] | 65% | 64 |  |  |  |
| Brc1cnc(Nc2ccc(N3CCOCC3)cc2)nc1NCC1CCCO1 (centres unmarked) [Compound 9h] |  |  |  | 89 ± 1.4 |  |
| Clc1cnc(Nc2ccc(N3CCNCC3)cc2)nc1NCC1CCCO1 (centres unmarked) [MH1-007-3, 5-chloro-N2-(4-(piperazin-1-yl)phenyl)-N4-((tetrahydrofuran-2-yl)methyl)pyrimidine-2,4-diamine] | 73% and 78% (2×) | 91 |  |  |  |
| O=C(O)CCC(=O)N1CCN(c2ccc(Nc3ncc(Br)c(NCC4CCCO4)n3)cc2)CC1 (centres unmarked) [YL9-168, 4-(4-(4-(5-Bromo-4-((tetrahydrofuran-2-yl)methylamino)pyrimidin-2-ylamino)phenyl)piperazin-1-yl)-4-oxobutanoic acid] | 90% | 94 |  |  |  |
| Cl.O=C(Nc1c(F)cccc1Cl)c1cnc(Nc2ccc(O)c(F)c2)nc1NCC1CCCO1 (centres unmarked) [YL7-170-2, N-(2-chloro-6-fluorophenyl)-2-(3-fluoro-4-hydroxyphenylamino)-4-((tetrahydrofuran-2-yl)methylamino)pyrimidine-5-carboxamide hydrochloride] |  | 65 | 68% and 67% |  |  |

Other lines, results leading:

| % Inhibition at 10 μM (ELISA) [1] | inhibition at 10 µM [2] [%] | % Inhibition at 10 μM (ELISA) [3] | inhibition at 10 µM [4] [%] | inhibition at 10 µM [5] [%] | SMILES |
| --- | --- | --- | --- | --- | --- |
| 81% | 72 |  |  |  | Cl.O=C(O)Cc1ccc(Nc2ncc(Cl)c(NCC3CCCO3)n2)cc1 (centres unmarked) [NT1-006, 2-(4-(5-Chloro-4-((tetrahydrofuran-2-yl)methylamino)pyrimidin-2-ylamino)phenyl)acetic acid] |
| 72% | 70 |  |  |  | Cl.O=C(O)CCc1ccc(Nc2ncc(Cl)c(NC[C@@H]3CCCO3)n2)cc1 [NT1-015, (S)-3-(4-(5-Chloro-4-((tetrahydrofuran-2-yl)methylamino)pyrimidin-2-ylamino)phenyl)propanoic acid] |
| 61% | 73 |  |  |  | CCNC(=O)C1CCN(c2ccc(Nc3ncc(Cl)c(NC[C@@H]4CCCO4)n3)cc2)CC1 [SG1-083] |
| 73% | 75 |  |  |  | Cl.O=C(O)CCc1ccc(Nc2ncc(Cl)c(NCC3CCCO3)n2)cc1 (centres unmarked) [NT1-007, 3-(4-(5-Chloro-4-((tetrahydrofuran-2-yl)methylamino)pyrimidin-2-ylamino)phenyl)propanoic acid] |
| 72% | 77 |  |  |  | Clc1cnc(Nc2ccc(CN3CCCCC3)cc2)nc1NCC1CCCO1 (centres unmarked) [MH1-035-3, 5-chloro-N2-(4-(piperidin-1-ylmethyl)phenyl)-N4-((tetrahydrofuran-2-yl)methyl)pyrimidine-2,4-diamine] |
| 65% | 52 |  |  |  | CCOC(=O)C1CCN(c2ccc(Nc3ncc(Cl)c(NC[C@H]4CCCO4)n3)cc2)CC1.Cl [DZ1-070, (R)-ethyl1-(4-(5-chloro-4-((tetrahydrofuran-2-yl)methylamino)pyrimidin-2-ylamino)phenyl)piperidine-4-carboxylate] |
| 76% | 67 |  |  |  | Cl.Clc1cnc(Nc2ccc(C3CCNCC3)cc2)nc1NC[C@H]1CCCO1 [NT1-010, (R)-5-Chloro-N^2-(4-(piperidin-4-yl)phenyl)-N^4-((tetrahydrofuran-2-yl)methyl)pyrimidine-2,4-diamine] |
| 73% and 46% |  |  |  |  | Cl.O=C(O)Cc1ccc(Nc2ncc(Cl)c(NC[C@@H]3CCCO3)n2)cc1 [NT1-013, (S)-2-(4-(5-Chloro-4-((tetrahydrofuran-2-yl)methylamino)pyrimidin-2-ylamino)phenyl)acetic acid] |
| 75% | 61 |  |  |  | Cl.O=C(O)CCc1ccc(Nc2ncc(Cl)c(NC[C@H]3CCCO3)n2)cc1 [NT1-014, (R)-3-(4-(5-Chloro-4-((tetrahydrofuran-2-yl)methylamino)pyrimidin-2-ylamino)phenyl)propanoic acid] |
| 74% | 62 |  |  |  | CN(C)CCNC(=O)CCc1ccc(Nc2ncc(Cl)c(NCC3CCCO3)n2)cc1.Cl (centres unmarked) [NT1-028, 3-(4-(5-Chloro-4-((tetrahydrofuran-2-yl)methylamino)pyrimidin-2-ylamino)phenyl)-N-(2-(dimethylamino)ethyl)propanamide] |
| 33% | 53 |  |  |  | Oc1ccc(Nc2ncc(F)c(NCC3CCCO3)n2)cc1 (centres unmarked) [DZ1-112, 4-(5-fluoro-4-((tetrahydrofuran-2-yl)methylamino)pyrimidin-2-ylamino)phenol] |
| 75% | 74 |  |  |  | Cl.O=C(O)CCc1ccc(Nc2ncc(Br)c(NCC3CCCO3)n2)cc1 (centres unmarked) [NT1-023, 3-(4-(5-Bromo-4-((tetrahydrofuran-2-yl)methylamino)pyrimidin-2-ylamino)phenyl)propanoic acid] |
